{"source": "patent US20160000504A1", "about": "“METHOD FOR TRAINING IMMUNE CELLS USING MILLIMETER WAVE THERAPY” (Electrohealing Holdings, Inc., priority 2014, published 2016)", "origin": "cited, not measured here", "tested_on": "B16 melanoma cells", "conditions": "1 mg per kg thirty minutes prior to each treatment; MMWT 61.22 GHz, 5 day delay before first irradiation; groups seven and eight vs three and four (FIG. 2A vs FIG. 2B)", "note": "Counter-ions that a name gives are not always drawn."}
{"compound": "C=CCN1CC[C@]23c4c5ccc(O)c4O[C@H]2C(=O)CC[C@@]3(O)[C@H]1C5", "note": "[naloxone hydrochloride]", "values": [{"measurement": "change in tumor size: effect of opioid antagonist on MMWT inhibition of tumor growth", "value": "blocks the beneficial effects of MMWT"}]}
